Test system: T47D cells
Type: cell-based
Conditions: serum-starved T47D cells, 96 hours, compared to DMSO or IgG1 controls
Description: To measure proliferation, Hoechst staining was used to stain nuclei and CellMask™ (Thermo Fisher Scientific) Deep Red was used to stain cell membranes. To measure cell death, Annexin V was used to stain phosphatidylserine on the cell surface, a marker of apoptosis, and Incucyte® Cytotox Green (Sartorius) to stain cells with compromised membrane integrity, a marker of cell death.

Structure (SMILES): CC(=O)O[C@H]1C(=O)[C@@]2(C)[C@H]([C@H](OC(=O)c3ccccc3)[C@]3(O)C[C@H](OC(=O)[C@H](O)[C@@H](NC(=O)c4ccccc4)c4ccccc4)C(C)=C1C3(C)C)[C@]1(OC(C)=O)CO[C@@H]1C[C@@H]2O [paclitaxel]
- effect on cell death (Annexin V, Cytotox Green): increased cell death
- effect on cell proliferation (nuclei count, total cell area): decreased proliferation
